Measurements published in patent publication US12459951B2, “Compounds that interact with RAS superfamily proteins for treatment of cancers, inflammatory diseases, rasopathies, and fibrotic disease” (SHY Therapeutics, LLC, priority 2022, dated 2025).

What follows are compounds tested on Erk1/2 phosphorylation (assay: Erk1/2 Phosphorylation Assay (western blot), Panc-1). Conditions: at 10 μM, * = activation.
Type: cell-based, human
Description: Protocol for Western Erk1/2 Cell-Based Phosphorylation Assay
This assay is referred to as the “Erk1/2 Phosphorylation Assay” throughout this application.
Cell lines: Human tumor-derived pancreatic cancer cell line Panc-1 (expressing KRas G12D mutant) was purchased from American Type Culture Collection and grown in complete DMEM-High Glucose medium, supplemented with penicillin (100 U/mL), streptomycin (100 μg/mL), and 10% heat-inactivated FBS at 37° C. in a humidified incubator with 5% CO2.
Method 1: Cells were plated at 350000 cells/well density in a 12-well plate, allowed 3 hours to adhere to the plate, then starved in the appropriate medium in the presence of 0.5% FBS overnight. The small molecules to be tested were added to the cells in the final concentration of 10 μM in the presence of 0.3% DMSO for 6 hours incubation at 37° C. For IC50 value determination, serial dilutions of compounds were added to cells under the same conditions. Next, cells were stimulated with 1.5 ng/ml EGF for 15 minutes then cells were lysed with lysis buffer containing 1% Triton X-100, EDTA, and Halt™ Protease & Phosphatase Inhibitor Cocktail (Thermo Scientific). Protein concentration was assessed by BCA protein assay (Thermo Scientific). Phosphorylation level of Erk1/2 was determined by western blot.
Method 2: Cells were plated at 350000 cells/well density in a 12-well plate in 10% FBS. The next day small molecules to be tested were added to the cells in the final concentration of 10 μM in the presence of 0.3% DMSO for 6 hours incubation at 37° C. For IC50 value determination, serial dilutions of compounds were added to cells under the same conditions. Next, cells were lysed with lysis buffer containing 1% Triton X-100, EDTA, and Halt™ Protease & Phosphatase Inhibitor Cocktail (Thermo Scientific). Protein concentration was assessed by BCA protein assay (Thermo Scientific). Phosphorylation level of Erk1/2 was determined by western blot.
Western blot protocol: Equal amounts of protein (15-50 μg) were separated by SDS-PAGE and transferred to nitrocellulose membranes (Invitrogen by Thermo Fisher Scientific). The membrane was stained with Ponceau S Stain (Boston BioProducts) to verify uniform protein loading. Membranes were blocked with 10% milk and phosphorylation levels of Erk1/2 were assessed by incubating overnight at 4° C. with anti-phospho-p44/42 (Thr202/Tyr204) antibody (Cell Signaling) followed by HRP-conjugated secondary antibody (Jackson Immunoresearch, West Grove, PA). Bands were incubated in Amersham ECL Prime Western Blotting Detection Reagent (GE Healthcare) and visualized using the ChemiDoc MP imaging system (Bio-Rad).
For `COc1cncnc1Nc1nc(-c2nccn2C)nn2cc(-c3ccn(C)n3)c(C)c12` [Compound 107, N-(5-Methoxypyrimidin-4-yl)-5-methyl-2-(1-methyl-1H-imidazol-2-yl)-6-(1-methyl-1H-pyrazol-3-yl)pyrrolo[2,1-f][1,2,4]triazin-4-amine], the “% inh of Erk1/2 phosphorylation in Panc-1” value (“% inh” below) was “D* (85-100% activation)”.
`Cc1c(-c2ccn(C3CC3)n2)cn2nc(-c3nccn3C)nc(Nc3cc(OCCCN(C)C)ccn3)c12` [Compound 148, 6-(1-Cyclopropyl-1H-pyrazol-3-yl)-N-(4-(3-(dimethylamino)propoxy)pyridin-2-yl)-5-methyl-2-(1-methyl-1H-imidazol-2-yl)pyrrolo[2,1-f][1,2,4]triazin-4-amine] was tested, and the “% inh” value was “C* (46-84% activation)”.
With `Cc1c(-c2ccn(C)n2)cn2nc(-c3nccn3C)nc(Nc3ncccn3)c12.Cl` [Compound 115, 5-Methyl-2-(1-methyl-1H-imidazol-2-yl)-6-(1-methyl-1H-pyrazol-3-yl)-N-(pyrimidin-2-yl)pyrrolo[2,1-f][1,2,4]triazin-4-amine hydrochloride salt] the “% inh” value was “C (50-84% inhibition)”.
For `COc1ccnc(Nc2nc(-c3nccn3C)nn3cc(-c4ccn(C)n4)c(C)c23)n1.Cl` [Compound 114, N-(4-Methoxypyrimidin-2-yl)-5-methyl-2-(1-methyl-1H-imidazol-2-yl)-6-(1-methyl-1H-pyrazol-3-yl)pyrrolo[2,1-f][1,2,4]triazin-4-amine hydrochloride salt], the “% inh” value was “B* (26-49% activation)”.
With `CO[C@H]1C[C@H](Nc2nc(-c3nccn3C)nn3cc(-c4cccnc4)c(-c4ccccn4)c23)C1` [Compound 168, N-((1r,3r)-3-Methoxycyclobutyl)-2-(1-methyl-1H-imidazol-2-yl)-5-(pyridin-2-yl)-6-(pyridin-3-yl)pyrrolo[2,1-f][1,2,4]triazin-4-amine] the “% inh” value was 0 (0% inhibition).
With `Cc1c(-c2ccn(C(C)C)n2)cn2nc(-c3nccn3C)nc(Nc3ncc[nH]3)c12` [Compound 125, N-(1H-Imidazol-2-yl)-6-(1-isopropyl-1H-pyrazol-3-yl)-5-methyl-2-(1-methyl-1H-imidazol-2-yl)pyrrolo[2,1-f][1,2,4]triazin-4-amine] the “% inh” value was “A (1-25% inhibition)”.
With `Cc1c(-c2ccn(C)n2)cn2nc(-c3nccn3C)nc(Nc3cn(C(C)C)nn3)c12` [Compound 109, N-(1-Isopropyl-1H-1,2,3-triazol-4-yl)-5-methyl-2-(1-methyl-1H-imidazol-2-yl)-6-(1-methyl-1H-pyrazol-3-yl)pyrrolo[2,1-f][1,2,4]triazin-4-amine] the “% inh” value was “B* (26-49% activation)”.
In the case of `COc1cc(-c2cn3nc(-c4nccn4C)nc(N[C@@H]4CC[C@@H](OC)C4)c3c2C)ccn1` (racemic) [Compound 163, rac N-((1R,3R)-3-Methoxycyclopentyl)-6-(2-methoxypyridin-4-yl)-5-methyl-2-(1-methyl-1H-imidazol-2-yl)pyrrolo[2,1-f][1,2,4]triazin-4-amine], the “% inh” value is reported as “A* (1-25% activation)”.
For `Cc1c(-c2ccn(C3CC3)n2)cn2nc(-c3nccn3C)nc(O)c12` [Compound 134, 6-(1-Cyclopropyl-1H-pyrazol-3-yl)-5-methyl-2-(1-methyl-1H-imidazol-2-yl)pyrrolo[2,1-f][1,2,4]triazin-4-ol], the “% inh” value was “B (26-49% inhibition)”.
For `COc1ccnc(Nc2nc(-c3nccn3C)nn3cc(-c4ccn(C(F)F)n4)c(C)c23)n1` [Compound 95, 6-(1-(Difluoromethyl)-1H-pyrazol-3-yl)-N-(4-methoxypyrimidin-2-yl)-5-methyl-2-(1-methyl-1H-imidazol-2-yl)pyrrolo[2,1-f][1,2,4]triazin-4-amine], the “% inh” value was “D* (85-100% activation)”.
With `CO[C@H]1CC[C@@H](Nc2nc(-c3ccccn3)nn3cc(-c4ccn(C(C)C)n4)c(C)c23)C1` (racemic) [Compound 9, rac 6-(1-Isopropyl-1H-pyrazol-3-yl)-N-((1R,3S)-3-methoxycyclopentyl)-5-methyl-2-(pyridin-2-yl)pyrrolo[2,1-f][1,2,4]triazin-4-amine] the “% inh” value was 0 (0% inhibition).
In the case of `Cc1c(-c2ccn(C(C)C)n2)cn2nc(-c3nccn3C)nc(Nc3nccn3C)c12` [Compound 93, 6-(1-Isopropyl-1H-pyrazol-3-yl)-5-methyl-N,2-bis(1-methyl-1H-imidazol-2-yl)pyrrolo[2,1-f][1,2,4]triazin-4-amine], the “% inh” value is reported as “D (85-100% inhibition)”.
For `Cc1c(-c2ccn(C(C)C)n2)cn2nc(-c3nccn3C)nc(Nc3nccc(OCCO)n3)c12` [Compound 121, 2-((2-((6-(1-Isopropyl-1H-pyrazol-3-yl)-5-methyl-2-(1-methyl-1H-imidazol-2-yl)pyrrolo[2,1-f][1,2,4]triazin-4-yl)amino)pyrimidin-4-yl)oxy)ethan-1-ol], the “% inh” value was “D* (85-100% activation)”.
With `Cc1c(-c2ccn(C)n2)cn2nc(-c3nccn3C)nc(Nc3ccn(C4CC4)n3)c12` [Compound 111, N-(1-Cyclopropyl-1H-pyrazol-3-yl)-5-methyl-2-(1-methyl-1H-imidazol-2-yl)-6-(1-methyl-1H-pyrazol-3-yl)pyrrolo[2,1-f][1,2,4]triazin-4-amine] the “% inh” value was “A* (1-25% activation)”.
In the case of `COCCOc1cc(Nc2nc(-c3nccn3C)nn3cc(-c4ccn(C(C)C)n4)c(C)c23)ncn1` [Compound 122, 6-(1-Isopropyl-1H-pyrazol-3-yl)-N-(6-(2-methoxyethoxy)pyrimidin-4-yl)-5-methyl-2-(1-methyl-1H-imidazol-2-yl)pyrrolo[2,1-f][1,2,4]triazin-4-amine], the “% inh” value is reported as “A* (1-25% activation)”.
`COc1cc(-c2cn3nc(-c4nccn4C)nc(N[C@H]4C[C@@H](OC)C4)c3c2C)ccn1` [Compound 162, N-((1s,3s)-3-Methoxycyclobutyl)-6-(2-methoxypyridin-4-yl)-5-methyl-2-(1-methyl-1H-imidazol-2-yl)pyrrolo[2,1-f][1,2,4]triazin-4-amine] was tested, and the “% inh” value was “A (1-25% inhibition)”.
`Cc1c(-c2ccn(C3CC3)n2)cn2nc(-c3nccn3C)nc(Nc3cc(OCCCO)ccn3)c12` [Compound 149, 3-((2-((6-(1-Cyclopropyl-1H-pyrazol-3-yl)-5-methyl-2-(1-methyl-1H-imidazol-2-yl)pyrrolo[2,1-f][1,2,4]triazin-4-yl)amino)pyridin-4-yl)oxy)propan-1-ol] was tested, and the “% inh” value was “D* (85-100% activation)”.
With `Cc1c(-c2ccn(C3CC3)n2)cn2nc(-c3nccn3C)nc(Nc3cc(OCC(F)(F)F)ccn3)c12` [Compound 140, 6-(1-Cyclopropyl-1H-pyrazol-3-yl)-5-methyl-2-(1-methyl-1H-imidazol-2-yl)-N-(4-(2,2,2-trifluoroethoxy)pyridin-2-yl)pyrrolo[2,1-f][1,2,4]triazin-4-amine] the “% inh” value was “D* (85-100% activation)”.
For `Cc1c(-c2ccn(C(C)C)n2)cn2nc(-c3nccn3C)nc(Nc3cc(OCCO)ncn3)c12` [Compound 97, 2-((6-((6-(1-Isopropyl-1H-pyrazol-3-yl)-5-methyl-2-(1-methyl-1H-imidazol-2-yl)pyrrolo[2,1-f][1,2,4]triazin-4-yl)amino)pyrimidin-4-yl)oxy) ethan-1-ol], the “% inh” value was “D* (85-100% activation)”.
For `CO[C@H]1CC[C@@H](Nc2nc(-c3nccn3C)nn3cc(-c4ccn(C)n4)c(C)c23)C1` (racemic) [Compound 133, rac N-((1R,3S)-3-Methoxycyclopentyl)-5-methyl-2-(1-methyl-1H-imidazol-2-yl)-6-(1-methyl-1H-pyrazol-3-yl)pyrrolo[2,1-f][1,2,4]triazin-4-amine], the “% inh” value was “A (1-25% inhibition)”.
In the case of `Cc1c(-c2ccn(C)n2)cn2nc(-c3nccn3C)nc(Nc3cnccn3)c12` [Compound 120, 5-Methyl-2-(1-methyl-1H-imidazol-2-yl)-6-(1-methyl-1H-pyrazol-3-yl)-N-(pyrazin-2-yl)pyrrolo[2,1-f][1,2,4]triazin-4-amine], the “% inh” value is reported as “C* (46-84% activation)”.
With `COc1cc(Nc2nc(-c3nccn3C)nn3cc(-c4ccccn4)c(C)c23)ncn1` [Compound 94, N-(6-Methoxypyrimidin-4-yl)-5-methyl-2-(1-methyl-1H-imidazol-2-yl)-6-(pyridin-2-yl)pyrrolo[2,1-f][1,2,4]triazin-4-amine] the “% inh” value was “C* (46-84% activation)”.
